According to patent publication US10508118B2, “Pyrimidopyrrole compounds, method for preparing the same, pharmaceutical compositions comprising the same and uses thereof” (Xiamen University, priority 2015, dated 2019):
Where two headings read alike, the source gives them in different places.

Tests used:
Type in all cases: cell-based
[1] = target: T1, EML4-ALK-BaF3 (Homo sapiens, UniProt Q9UM73); assay: Growth inhibition of EML4-ALK transformed BaF3 cells (MTS); details: for IC50: EML4-ALK-BaF3 cells, 48 hours, MTS
T1 construct: expressed in transfected cells; host or cells: Ba/F3 cells; the other entry of the earlier key: EML4 (Q9HC35, Echinoderm microtubule-associated protein-like 4)
Experimental: (§1) If compounds can inhibit the activity of ALK kinase or the activity of ALK signaling pathway, they can inhibit the growth of ALK transformed Ba/F3 cells. […] The broad-spectrum toxicity of compounds can be evaluated by determining the effect of the compounds on the growth of wild type BaF3 cells.
(§2) 1) Medium: DMEM (Dulbecco's modified eagle medium) or RPMI1640 (containing 10% fetal bovine serum, 100 μg/mL ampicillin, 100 μg/mL streptomycin).)
(§3) Reagents: MTS solution (2 mg/mL MTS (3-(4,5-dimethylthiazol-2-yl)-5-(3-carboxymethoxyphenyl)-2-(4-sulfophenyl)-2H-tetrazolium, inner salt); 100 μg/mL PES ([…])).
(§4) 3) Test of compound: Transformed Ba/F3 cells (EML4-ALK-BaF3, EML4-ALK(L1196M)-BaF3, NPM-ALK-BaF3) (2×10^4/well) were distributed into 96-well plates, with volume of cell sap of 90 μL, 10 μL of compounds in gradient concentration (the highest concentration 10 was μM, followed by 1/3 step by step dilution, a total of 8 concentrations were set, the system contained 0.1% DMSO (dimethyl sulfoxide)). The cell plates mixed with compounds were cultured in a cell incubator (37° C.; 5% CO2) for 48 hours, and the added 20 μL of MTS reaction solution, mixed and incubated in cell incubator (37° C.; 5% CO2) for 1-4 hours. The OD value at a wavelength of 490 nm was measured using eliasa (VARIOSKAN FLASH, Thermo). Three parallels were set up for each group, with a final concentration of 0.1% DMSO as negative control, and with medium without cells and compounds as blank control.
(§5) 4) Calculation of IC50 value: the semi inhibitory concentration of the compound acting on the cells was calculated using GradPad Prism 5 software according to the cell inhibitory rate measured.

[2] = test system: wild type BaF3; assay: Growth inhibition of wild type BaF3 cells (broad-spectrum toxicity); details: Mus musculus, BaF3, 48 h, MTS
Experimental: (§6) The activity of compounds against ALK kinase was evaluated by inhibiting the growth of cellular ALK kinase EML4-ALK-BaF3, EML4-ALK (L1196M)-BaF3, NPM-ALK-BaF3, and wild type BaF3 (Proc. Natl. Acad. Sci. USA., 2006, 103, 3153-8.) The growth of cellular ALK kinase EML4-ALK-BaF3, EML4-ALK(L1196M)-BaF3, and NPM-ALK-BaF3 depends on their kinase activity. If compounds can inhibit the activity of ALK kinase or the activity of ALK signaling pathway, they can inhibit the growth of ALK transformed Ba/F3 cells. […] The broad-spectrum toxicity of compounds can be evaluated by determining the effect of the compounds on the growth of wild type BaF3 cells.
as §2, §3
as §4, with “control. The inhibition rate of cell growth was calculated by the following formula: Cell inhibition rate %=1−(OD experimental group−OD blank group)/(OD negative group−OD blank group)*100%” for “control.”
as §5

[3] = target: T2, NPM-ALK-BaF3 (Homo sapiens, UniProt Q9UM73); assay: Growth inhibition of NPM-ALK transformed BaF3 cells (MTS); details: 48 hours
T2 construct: expressed in transfected cells; host or cells: Ba/F3 cells; the other entry of the earlier key: NPM1 (P06748, Nucleophosmin)
Experimental: as §6, §2, §3
as §4, with “control. The inhibition rate of cell growth was calculated by the following formula: Cell inhibition rate %=1−(OD experimental group−OD blank group)/(OD negative group−OD blank group)*100%” for “control.”
as §5

[4] = target: T3, EML4-ALK (L1196M)-BaF3 (Homo sapiens, UniProt Q9UM73, L1196M); assay: Growth inhibition of EML4-ALK (L1196M) transformed BaF3 cells (MTS); details: 48 hours
T3 construct: expressed in transfected cells; host or cells: Ba/F3 cells; the other entry of the earlier key: EML4 (Q9HC35, Echinoderm microtubule-associated protein-like 4)
Experimental: as §1, §2, §3, §4, §5

[5] = Table 12, read-out: L1196M (IC50 nM)
[6] = Table 11, read-out: EML4-ALK (L1196M) (IC50 nM)

IC50 ([1]; Table 12) [nM]	IC50 ([3]; Table 12) [nM]	IC50 [4, 5] [nM]	targeting selectivity ([1]; ratio of IC50 between wild-type BaF3 and ALK transformed BaF3 cells)	IC50 ([1]; Table 11) [nM]	IC50 ([3]; Table 11) [nM]	IC50 [4, 6] [nM]	SMILES	IC50 ([2]; Table 12) [nM]	IC50 ([2]; Table 11) [nM]
1760	~3460	4770	–	–	–	–	Cc1cc(Nc2nc(Nc3ccccc3S(=O)(=O)C(C)C)c3c(ccn3C)n2)c(OC(C)C)cc1C1CCN(C)CC1 [IID-8]	~8380	–
2240	4740	~2880	–	–	–	–	COc1cc(C2CCN(C)CC2)c(C)cc1Nc1nc(Nc2ccccc2S(=O)(=O)C(C)C)c2c(ccn2C)n1 [IID-9]	~8300	–
2370	4870	3440	–	–	–	–	COC(=O)c1ccccc1Nc1nc(Nc2ccc(N3CCN(C)CC3)cc2OC)nc2ccn(C)c12 [IIG-1]	5170	–
~3880	4890	3730	–	–	–	–	COC(=O)c1ccccc1Nc1nc(Nc2ccc(N3CCC(N4CCN(C)CC4)CC3)cc2OC)nc2ccn(C)c12 [IIG-2]	~7940	–
4260	3180	2790	–	–	–	–	COC(=O)c1ccccc1Nc1nc(Nc2ccc(N3CCC(O)CC3)cc2)nc2ccn(C)c12 [IIG-3]	5040	–
~1330	4210	3950	–	–	–	–	COC(=O)c1ccccc1Nc1nc(Nc2ccc(C(=O)N3CCC(N4CCN(C)CC4)CC3)cc2OC)nc2ccn(C)c12 [IIG-4]	4870	–
1620	1750	1840	–	–	–	–	COC(=O)c1cccc(Nc2nc(Nc3ccc(N4CCN(C)CC4)cc3OC)nc3ccn(C)c23)c1 [IIH-1]	4940	–
1970	4470	1810	–	–	–	–	COC(=O)c1cccc(Nc2nc(Nc3ccc(N4CCC(O)CC4)cc3)nc3ccn(C)c23)c1 [IIH-2]	2830	–
~1360	~2740	1690	–	–	–	–	COc1cc(N2CCN(C)CC2)ccc1Nc1nc(NCc2ccccc2SC)c2c(ccn2C)n1 [III-1]	~2780	–
> 10000	> 10000	> 10000	–	–	–	–	CSc1ccccc1CNc1nc(Nc2ccc(N3CCC(O)CC3)cc2)nc2ccn(C)c12 [III-2]	> 10000	–
3200	3710	4000	–	–	–	–	CSc1ccccc1CNc1nc(Nc2ccc(S(N)(=O)=O)cc2)nc2ccn(C)c12 [III-3]	~3340	–
~865	627	544	–	–	–	–	COc1cc(N2CCN(C)CC2)ccc1Nc1nc(NCc2ccccc2SC(C)C)c2c(ccn2C)n1 [IIJ-1]	~911	–
1710	1610	1610	–	–	–	–	CC(C)Sc1ccccc1CNc1nc(Nc2ccc(N3CCC(O)CC3)cc2)nc2ccn(C)c12 [IIJ-2]	~2860	–
> 10000	> 10000	9700	–	–	–	–	CC(C)Sc1ccccc1CNc1nc(Nc2ccc(S(N)(=O)=O)cc2)nc2ccn(C)c12 [IIJ-3]	> 10000	–
~2700	1980	2100	–	–	–	–	COc1cc(N2CCN(C)CC2)ccc1Nc1nc(NCc2ccccc2S(C)(=O)=O)c2c(ccn2C)n1 [IIK-1]	3280	–
~3150	~3420	~2950	–	–	–	–	COc1cc(N2CCC(N3CCN(C)CC3)CC2)ccc1Nc1nc(NCc2ccccc2S(C)(=O)=O)c2c(ccn2C)n1 [IIK-2]	~2950	–
> 10000	> 10000	> 10000	–	–	–	–	Cn1ccc2nc(Nc3ccc(N4CCC(O)CC4)cc3)nc(NCc3ccccc3S(C)(=O)=O)c21 [IIK-3]	> 10000	–

IC50 ([1]; Table 12) [nM]	IC50 ([3]; Table 12) [nM]	IC50 [4, 5] [nM]	targeting selectivity ([1]; ratio of IC50 between wild-type BaF3 and ALK transformed BaF3 cells)	IC50 ([1]; Table 11) [nM]	IC50 ([3]; Table 11) [nM]	IC50 [4, 6] [nM]	SMILES	IC50 ([2]; Table 12) [nM]	IC50 ([2]; Table 11) [nM]
1430	1880	~2560	–	–	–	–	CN1CCN(c2ccc(Nc3nc(NCc4ccccc4S(C)(=O)=O)c4c(ccn4C)n3)cc2)CC1 [IIK-5]	~2870	–
> 10000	> 10000	> 10000	–	–	–	–	COc1cc(C(=O)N2CCC(N3CCN(C)CC3)CC2)ccc1Nc1nc(NCc2ccccc2S(C)(=O)=O)c2c(ccn2C)n1 [IIK-6]	> 10000	–
1300	1350	1590	–	–	–	–	COc1cc(N2CCN(C)CC2)ccc1Nc1nc(NCc2ccccc2S(=O)(=O)C(C)C)c2c(ccn2C)n1 [IIL-1]	~2610	–
627	1820	1420	good targeting selectivity	–	–	–	COc1cc(N2CCC(N3CCN(C)CC3)CC2)ccc1Nc1nc(NCc2ccccc2S(=O)(=O)C(C)C)c2c(ccn2C)n1 [IIL-2]	2620	–
> 10000	7440	> 10000	–	–	–	–	CC(C)S(=O)(=O)c1ccccc1CNc1nc(Nc2ccc(N3CCC(O)CC3)cc2)nc2ccn(C)c12 [IIL-3]	> 10000	–
> 10000	> 10000	> 10000	–	–	–	–	CC(C)S(=O)(=O)c1ccccc1CNc1nc(Nc2ccc(S(N)(=O)=O)cc2)nc2ccn(C)c12 [IIL-4]	> 10000	–
1140	848	1530	–	–	–	–	CC(C)S(=O)(=O)c1ccccc1CNc1nc(Nc2ccc(N3CCN(C)CC3)cc2)nc2ccn(C)c12 [IIL-5]	~2760	–
~5750	> 10000	6470	–	–	–	–	COC(=O)c1ccccc1Oc1nc(Nc2ccc(N3CCN(C)CC3)cc2OC)nc2ccn(C)c12 [IIN-1]	~9960	–
~2590	2330	2220	–	–	–	–	COC(=O)c1ccccc1Oc1nc(Nc2ccc(N3CCC(N4CCN(C)CC4)CC3)cc2OC)nc2ccn(C)c12 [IIN-2]	5630	–
> 10000	> 10000	> 10000	–	–	–	–	COC(=O)c1ccccc1Oc1nc(Nc2ccc(N3CCC(O)CC3)cc2)nc2ccn(C)c12 [IIN-3]	> 10000	–
> 10000	> 10000	> 10000	–	–	–	–	COC(=O)c1ccccc1Oc1nc(Nc2ccc(S(N)(=O)=O)cc2)nc2ccn(C)c12 [IIN-4]	> 10000	–
–	–	–	–	4270	4660	3940	CNC(=O)c1ccccc1Nc1nc(Nc2ccc(N3CCC(N4CCN(C)CC4)CC3)cc2OC)nc2cc[nH]c12 [IJ-1]	–	5010
–	–	–	–	~8710	~8360	4110	CNC(=O)c1ccccc1Nc1nc(Nc2ccc(N3CCC(N4CCCC4)CC3)cc2OC)nc2cc[nH]c12 [IJ-2]	–	~11700
–	–	–	–	> 10000	> 10000	> 10000	CNC(=O)c1ccccc1Nc1nc(Nc2ccc(S(N)(=O)=O)cc2)nc2cc[nH]c12 [IJ-3]	–	> 10000
–	–	–	–	~2580	1780	1550	COC(=O)c1sccc1Nc1nc(Nc2ccc(N3CCN(C)CC3)cc2OC)nc2cc[nH]c12 [IK-1]	–	1820
–	–	–	–	669	~823	451	COC(=O)c1sccc1Nc1nc(Nc2ccc(N3CCC(N4CCN(C)CC4)CC3)cc2OC)nc2cc[nH]c12 [IK-2]	–	~913
